Source: PMC7828111, “In Search for Multi-Target Ligands as Potential Agents for Diabetes Mellitus and Its Complications—A Structure-Activity Relationship Study on Inhibitors of Aldose Reductase and Protein Tyrosine Phosphatase 1B” (Molecules, 2021)

Assays:
[1] = target: T1, human recombinant AR (Homo sapiens, UniProt P15121); test: Inhibition of human recombinant AR, L-idose as substrate (NADPH oxidation at 340 nm); assay type: biochemical; conditions: for IC50: human recombinant AR, 2 mM L-idose as substrate, mean ± S.E.M; for AR inhibitory potency relative to the corresponding acetic acid analogues 1, 2: less potent than acetic acid analogue, analogue data ref 5; for Inhibition of human AR (in words): at concentrations up to 10 μM
T1 construct: made in house; host or cells: E. coli BL21(DE3)pLysS
Procedure: The human recombinant AR was expressed in BL21(DE3)pLysS E. coli cells and purified to electrophoretic homogeneity as previously described. The purified enzyme (specific activity 5.0 U/mg) was stored at −80 °C in 10 mM sodium phosphate buffer pH 7.0 containing 2 mM dithiothreitol and 30% (w/v) glycerol. AR activity was determined at 37 °C as previously described evaluating the decrease in absorbance at 340 nm linked to NADPH oxidation. […] One unit of enzyme activity is the amount that catalyzes the conversion of 1 μmol of substrate/min in the above assay conditions.
All compounds tested as aldose reductase inhibitors were dissolved in DMSO and added to the assay mixture containing 8 mU of purified AR. The reaction was started by addition of the substrate. The DMSO concentration in all the assays was kept constant at 0.5% (v/v) in order to avoid effects on AR activity.
The IC50 values were determined by nonlinear regression analysis using Prism GraphPad 6.0 fitting experimental data to the following equation:(1) vi/v0= Max−Min/1+( I/IC50)^slope +Min
In the equation, vi/v0, represents the ratio between the activity measured in the presence of the inhibitor and the activity measured in the absence of inhibitor; Max and Min represent the expected maximal and minimal value of the activity and were fixed at 1 and zero, respectively. Slope, which describes the steepness of curve in the transition region, was fixed at −1. For each compound, at least five different concentrations of inhibitor in the triplicate assay were analyzed.

[2] = target: T2, human recombinant PTP1B (Homo sapiens, UniProt P18031); test: Inhibition of human recombinant PTP1B, p-nitrophenyl phosphate as substrate; assay type: biochemical; conditions: for remaining activity at 50 µM: residual activity, read-out: PTP1B % enzyme residual activity at the indicated concentration; for remaining activity at 50 µM / IC50: pNPP as substrate; for IC50: human recombinant PTP1B, mean ± S.E.M
T2 sequence (P18031 1-435): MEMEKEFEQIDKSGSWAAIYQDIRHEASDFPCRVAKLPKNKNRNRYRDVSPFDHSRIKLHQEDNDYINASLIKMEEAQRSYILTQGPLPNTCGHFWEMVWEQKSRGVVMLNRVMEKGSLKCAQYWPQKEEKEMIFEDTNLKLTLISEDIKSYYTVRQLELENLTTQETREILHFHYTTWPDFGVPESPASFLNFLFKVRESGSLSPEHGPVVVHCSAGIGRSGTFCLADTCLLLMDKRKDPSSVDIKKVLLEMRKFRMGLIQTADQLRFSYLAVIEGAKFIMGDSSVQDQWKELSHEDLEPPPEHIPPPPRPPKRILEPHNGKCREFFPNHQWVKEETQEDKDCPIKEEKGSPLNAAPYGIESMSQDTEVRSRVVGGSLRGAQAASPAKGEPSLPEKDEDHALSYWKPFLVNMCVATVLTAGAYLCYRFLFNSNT
Procedure: PTP1B activity was determined as follow. […] After an appropriate interval time, the reaction was stopped diluting assay solution with 2 mL of KOH 0.1 M. The amount of p-nitrophenol released was determined measuring the absorbance of the solution at 400 nm using a spectrophotometer and a 1-cm optical pathlength (εmM of p-nitrophenol is 18). The IC50 value was determined measuring the pNPP hydrolysis rate in the presence of increasing inhibitor concentration. For each inhibitor, 15–16 different concentrations were used. All tests were carried out in triplicate and data obtained were normalized respect to control sample.

[3] = target: T1, human recombinant AR; test: Kinetic analysis of AR inhibition (Lineweaver-Burk and secondary plots); assay type: biochemical
Procedure: The kinetic analysis of compounds 4a, 4e and 4f was performed by measuring reaction rates with different L-idose concentrations s (S) in the absence and in the presence of different inhibitors concentrations. Data were analyzed by Linewever-Burk plots.

[4] = target: T2, human recombinant PTP1B; test: Kinetic analysis of PTP1B inhibition (Lineweaver-Burk plot); assay type: biochemical; conditions: pNPP as substrate
Procedure: Kinetic analyses were carried out to dissect action mechanism of compound 4e and 4f. Briefly, the main kinetic parameters, Km and Vmax, were calculated measuring the initial hydrolysis rate of PTP1B in the presence of increasing pNPP concentration (seven different concentrations in the 0.5–25 mM range). All assays were carried out in duplicate. Data obtained were fitted using the Michaelis-Menten equation. To evaluate the action mechanism of inhibitors, we studied the dependence of Km and Vmax from inhibitors concentration, using three different inhibitor concentrations, at least. Data obtained were then analysed by double reciprocal plot (Lineweaver-Burk plot).

[5] = target: T1, human recombinant AR; test: Reversibility of AR inhibition (dialysis); assay type: biochemical
Procedure: In order to evaluate the reversibility of the inhibitory action, 8 mU of purified AR were assayed in the presence of 5 μM of compounds 4a, 4e and 4f. In these conditions less than 15% of the enzyme activity was measured in the presence of 2 mM L-idose as substrate. The mixture was then extensively dialysed on Amicon ultrafiltration membrane (cut off 10 KDa) against 10 mM sodium phosphate buffer, pH 7.0. After dialysis, the enzyme activity was again measured as above and compared to that of a mixture in the absence of inhibitor and treated in the same conditions.

[6] = target: T2, human recombinant PTP1B; test: Reversibility assay (dilution test) with PTP1B; assay type: biochemical; conditions: saturating inhibitor, 60 min 37 °C, diluted 400 folds
Procedure: An aliquot of the enzyme was incubated for 60 min at 37 °C in the presence of saturating amount of PTP1B inhibitor. After this time, an aliquot of the enzyme was withdrawn and diluted 400 folds in the assay buffer containing 2.5 mM of pNPP. After 15 min, the reaction was stopped by adding 1 mL of KOH 0.2 M. The amount of pNP released was calculating measuring the absorbance at 400 nm of solutions using a spectrophotometer. Data obtained were normalized respect to control tests, which was carried out diluting the enzyme with DMSO, the solvent used to dissolve all compounds. Data reported in the figure represent the mean value +/− S.E.M. (n = 3).

[7] = system: bovine lens AR; set-up: method as in PMID 15781392; conditions: glyceraldehyde as substrate; cited from earlier work
[8] = residual activity, L-idose as substrate, read-out: AR % enzyme residual activity at the indicated concentration

SMILES	IC50 [1] [µM]	remaining activity at 50 µM [2] [%]	melting point [°C]	IC50 [2] [µM]	other results
O=C(O)CCN1C(=O)S/C(=C\c2cccc(Oc3ccccc3)c2)C1=O [3a, 3-{(5Z)-[2,4-Dioxo-5-(3-phenoxyphenyl)methylidene]thiazolidin-3-yl}propanoic acid]	11.9 ± 0.9	79	177 to 180	–	–
O=C(O)CCN1C(=O)S/C(=C\c2ccc(Oc3ccccc3)cc2)C1=O [3b, 3-{(5Z)-[2,4-Dioxo-5-(4-phenoxyphenyl)methylidene]thiazolidin-3-yl}propanoic acid]	43.8 ± 7.1	56	198 to 202	–	–
O=C(O)CCN1C(=O)S/C(=C\c2cccc(OCc3ccccc3)c2)C1=O [3c, 3-{(5Z)-[5-(3-Benzyloxyphenyl)methylidene]-2,4-dioxothiazolidin-3-yl}propanoic acid]	14.3 ± 1	76	142 to 145	–	–
O=C(O)CCN1C(=O)S/C(=C\c2ccc(OCc3ccccc3)cc2)C1=O [3d, 3-{(5Z)-[5-(4-Benzyloxyphenyl)methylidene]-2,4-dioxothiazolidin-3-yl}propanoic acid]	35.7 ± 3	77	195 to 199	–	Inhibition of human PTP1B by virtual screening hit (in words) ([2]; in vitro evaluation of selected virtual hits, previously conducted): moderate capability to inhibit
O=C(O)CCN1C(=O)S/C(=C\c2cccc(OCCc3ccccc3)c2)C1=O [3e, 3-[(5Z)-2,4-Dioxo-{5-[3-(2-phenylethoxy)phenyl]methylidene}thiazolidin-3-yl]propanoic acid]	27.9 ± 3.1	64	130 to 133	–	AR inhibitory potency relative to the corresponding acetic acid analogues 1, 2 [1]: two orders of magnitude higher
O=C(O)CCN1C(=O)S/C(=C\c2ccc(OCCc3ccccc3)cc2)C1=O [3f, 3-[(5Z)-2,4-Dioxo-{5-[4-(2-phenylethoxy)phenyl]methylidene}thiazolidin-3-yl]propanoic acid]	50.2 ± 4.6	46	160 to 163	–	AR inhibitory potency relative to the corresponding acetic acid analogues 1, 2 [1]: two orders of magnitude higher
O=C(O)CCN1C(=O)/C(=C/c2cccc(Oc3ccccc3)c2)SC1=S [4a, 3-{(5Z)[4-Oxo-5-(3-phenoxyphenyl)methylidene-2-thioxothiazolidin-3-yl]}propanoic acid]	2.2 ± 0.1	–	–	34.1 ± 0.5	AR Ki relative to K′i ([3]; Ki higher than K′i): approximately 4 fold; AR K′i (apparent dissociation constant, EIS complex) ([3]; L-idose as substrate): 1.4 ± 0.022 µM; Mechanism of AR inhibition ([3]; L-idose as substrate): mixed-type inhibition; Ki ([3]; L-idose as substrate, read-out: AR Ki (apparent dissociation constant)): 5 ± 0.57 µM; Mechanism of PTP1B inhibition [4]: mixed-type non-competitive inhibitors; PTP1B K′i (apparent dissociation constant, EIS complex) [4]: 68.9 ± 1.5 µM; Ki ([4]; read-out: PTP1B Ki (apparent dissociation constant)): 10.6 ± 1.7 µM; AR enzyme activity recovered after removal of the inhibitor upon extensive dialysis ([5]; 5 μM compound before dialysis): more than 90%; AR enzyme activity measured in the presence of compound ([5]; 5 μM compound, 2 mM L-idose, before dialysis): less than 15%; Reversibility of PTP1B inhibition [6]: reversible inhibitors
O=C(O)CCN1C(=O)/C(=C/c2ccc(Oc3ccccc3)cc2)SC1=S [4b, 3-{(5Z)[4-Oxo-5-(4-phenoxyphenyl)methylidene-2-thioxothiazolidin-3-yl]}propanoic acid]	7.6 ± 0.6	–	218 to 219	29.5 ± 0.4	–
O=C(O)CCN1C(=O)/C(=C/c2cccc(OCc3ccccc3)c2)SC1=S [4c, 3-{(5Z)-5-[(3-Benzyloxyphenyl)methylidene]-4-oxo-2-thioxothiazolidin-3-yl}propanoic acid]	3.8 ± 0.1	–	–	42.8 ± 0.7	–
O=C(O)CCN1C(=O)/C(=C/c2ccc(OCc3ccccc3)cc2)SC1=S [4d, 3-{(5Z)-5-[(4-Benzyloxyphenyl)methylidene]-4-oxo-2-thioxothiazolidin-3-yl}propanoic acid]	8.4 ± 0.7	–	170 to 173	34.9 ± 0.7	–

Further lines, with some results ahead:

IC50 [1] [µM]	remaining activity at 50 µM [2] [%]	melting point [°C]	IC50 [2] [µM]	SMILES	other results
3.9 ± 0.2	–	–	42.1 ± 0.3	O=C(O)C=CCN1C(=O)SC(=Cc2cccc(Oc3ccccc3)c2)C1=O [5a]	Inhibitory activity towards bovine lens AR [7]: very scarce inhibitory activity
–	–	–	39.7 ± 0.1	O=C(O)C=CCN1C(=O)SC(=Cc2ccc(Oc3ccccc3)cc2)C1=O [5b]	remaining activity at 10 µM [1, 8]: 84%; Inhibition of human AR (in words) ([1]; L-idose as substrate): scarce inhibition; Inhibitory activity towards bovine lens AR [7]: almost inactive
–	–	–	34.8 ± 0.5	O=C(O)C=CCN1C(=O)SC(=Cc2ccc(-c3ccccc3)cc2)C1=O [5c]	remaining activity at 5 µM ([1]; at 5 µM, residual activity, L-idose as substrate, read-out: AR % enzyme residual activity at the indicated concentration): 88%; Inhibition of human AR (in words) ([1]; L-idose as substrate): scarce inhibition; Inhibitory activity towards bovine lens AR [7]: almost inactive
3.7 ± 0.2	–	170 to 172	40.3 ± 0.5	O=C(O)C=CCN1C(=O)SC(=Cc2cccc3ccccc23)C1=O [5d, 4-{(5Z)-[5-(1-Naphtylmethylidene)-2,4-dioxothiazolidin-3-yl]}-2-butenoic acid]	–
–	–	235 to 238	37.1 ± 0.4	O=C(O)C=CCN1C(=O)SC(=Cc2ccc3ccccc3c2)C1=O [5e, 4-{(5Z)-[5-(2-Naphtylmethylidene)-2,4-dioxothiazolidin-3-yl]}-2-butenoic acid]	remaining activity at 10 µM [1, 8]: 86%; Inhibition of human AR (in words) ([1]; L-idose as substrate): scarce inhibition
